Test results from patent US20260308196A1, “HELICASE INHIBITORS” (H. LEE MOFFITT CANCER CENTER AND RESEARCH INSTITUTE, INC., priority 2023, published 2026).

Tested on: T1, hCMG helicase
T1 construct: fork-unwinding strand displacement assay with ATP
Assay: helicase assay (fork-unwinding; strand displacement assay)
Type: biochemical, human
Conditions: 20 uL reactions: 1 uL DMSO or drugs, 2 uL hCMG (~15 fmol enzyme), 0.5 mM ATP; RF1-134 compared to CA1 (100% inhibition); drug concentration not given
Procedure: For 20 uL reactions: 1 uL DMSO or drugs, 2 uL hCMG (~15 fmol enzyme), and 0.5 mM ATP were added. The noviose sugar (purple box; called RF1-134) was generated using synthetic chemical approaches. […] CA1 refers to coumermycin-A1.

## CO[C@H]1[C@H](OC(=O)c2ccc(C)[nH]2)[C@H](O)[C@@H](Oc2ccc3c(O)c(NC(=O)c4c[nH]c(C(=O)Nc5c(O)c6ccc(O[C@H]7OC(C)(C)[C@@H](OC)[C@H](OC(=O)c8ccc(C)[nH]8)[C@@H]7O)c(C)c6oc5=O)c4C)c(=O)oc3c2C)OC1(C)C [CA1, coumermycin-A1]
  inhibition of hCMG helicase activity: 100%
